We go through 61 compounds from PubChem BioAssay AID1508610 (The Scripps Research Institute Molecular Screening Center, 2020).

Structures are written as SMILES. The source made the active and inactive calls. The rule behind the calls is not given here.

The term EC50 denotes the concentration giving half of the maximal effect.

The target in the test is G-protein coupled receptor 151 (Homo sapiens) (UniProt Q8TDV0). Put plainly: GPR151 activator potency, dose response, cell-based (AID 1508610). Conditions: cell-based GPR151 activation reporter.
Chain of G-protein coupled receptor 151 (Homo sapiens) (Q8TDV0 whole entry, looked up): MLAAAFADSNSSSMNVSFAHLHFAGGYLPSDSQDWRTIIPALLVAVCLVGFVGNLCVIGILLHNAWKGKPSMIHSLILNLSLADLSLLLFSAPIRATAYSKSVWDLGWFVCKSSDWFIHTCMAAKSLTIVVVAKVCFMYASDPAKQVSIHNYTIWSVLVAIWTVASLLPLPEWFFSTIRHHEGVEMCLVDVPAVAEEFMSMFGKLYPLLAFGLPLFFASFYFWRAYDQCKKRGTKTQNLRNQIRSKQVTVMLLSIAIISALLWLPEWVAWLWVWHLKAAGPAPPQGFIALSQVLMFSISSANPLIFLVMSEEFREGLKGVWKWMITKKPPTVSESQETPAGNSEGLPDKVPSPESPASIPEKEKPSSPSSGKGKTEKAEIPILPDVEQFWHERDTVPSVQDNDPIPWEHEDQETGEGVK
Consider `COC(=O)c1c(NC(=O)/C=C\C(=O)O)sc(C)c1C`, for which the EC50 is > 28 µM (inactive). For `O=C(Nc1ncc([N+](=O)[O-])s1)c1ccccc1F` the value was > 34 µM (inactive); for `COc1cccc(Nc2nc(Nc3cc(C)ccc3C)nc(N3CCOCC3)n2)c1`, > 26.2 µM (inactive). As to `Cc1ccc(-c2nnc3sc(NC(=O)CC(C)C)nn23)cc1`, the EC50 was > 28 µM (inactive). Turning to `O=C(O)C1CCCN(c2ncnc3scc(-c4ccccc4)c23)C1` (stereo unspecified), the EC50 was > 29.7 µM (inactive).

As for `COc1ccccc1N1CCN(C(=O)c2cnc(N3CCN(c4ncccn4)CC3)c3ccccc23)CC1`, the EC50 is > 20.1 µM (inactive). Then `Cc1ccc(C(=O)Nc2cccc(C(=O)O)c2)cc1`, with > 32.6 µM (inactive); and `CSc1nc(-c2ccccc2)cn1-c1ccc(F)cc1`, with > 35.5 µM (inactive); and `COc1ccc(-c2nnc3sc(NC(=O)C(C)C)nn23)cc1OC`, with > 28 µM (inactive). For `CCn1c(SCC(=O)c2ccccc2)nnc1C(C)C` the value was > 28 µM (inactive); for `COc1cccc(-c2ccc(=O)n(CC(=O)Nc3ccc(Cl)c(C(F)(F)F)c3)n2)c1`, > 28 µM (inactive); for `CCOCC(=O)NC12CC3CC(CC(C3)C1)C2`, > 44.2 µM (inactive). Then `Cc1ccccc1N(CC(=O)N1CCOCC1)S(=O)(=O)c1ccc(Cl)cc1`, with > 28 µM (inactive); and `COc1ccccc1OCC(=O)Nc1ccc(S(=O)(=O)NC(C)=O)cc1`, with > 28 µM (inactive). With `COc1ccc2[nH]c(C)c(CCNCc3ccc(OC(F)(F)F)cc3)c2c1`, the EC50 is > 21.6 µM (inactive).

As to `CCOc1ccc(C(=O)N2CCC(c3ncncc3-c3ccncc3)CC2)o1`, the EC50 is > 28 µM (inactive). For `O=C(Nc1ccc(NC(=O)c2cccc3c(Br)cccc23)cc1)c1ccco1` the value was > 24.4 µM (inactive). For `O=C(c1ccc(CNS(=O)(=O)c2ccc(Cl)cc2)cc1)N1CCCC1` the value was > 31.6 µM (inactive); for `Cc1ccc2c(c1)CN(CCC(=O)NCCCn1nnc3ccccc31)CC(C)O2` (stereo unspecified), > 28 µM (inactive); for `COc1cccc(/C=N/NC(=O)C(C)Nc2ccc(C)cc2)c1O` (stereo unspecified), > 28 µM (inactive).

On to `COC(=O)c1ccc(Nc2ncnc3c2cnn3-c2ccc(C)cc2C)cc1`, for which the EC50 was 0.00158 µM. Regarding `COc1ccc(Br)cc1C(=O)NCC1COc2ccccc2O1` (stereo unspecified), the EC50 is > 28 µM (inactive). For `Clc1nc(NCc2ccccc2)c2ncn(-c3ccccc3)c2n1` the value was > 28.1 µM (inactive); for `O=C1NC(=O)C(=Cc2cc(Br)ccc2OCc2ccccc2F)C(=O)N1`, > 28 µM (inactive). For `COc1ccc(/C=C2/NC(=O)N(c3cccc(Cl)c3)C2=O)c(OC)c1` the value was > 28 µM (inactive). Then `O=C(Nc1nc2c(s1)CCCC2)C1=COCCO1`, with > 27.4 µM (inactive).

As for `Cc1ccc2nc(-c3ccccc3)[nH]c2c1`, the EC50 was > 38.4 µM (inactive). In the case of `C/C(=C\c1ccccc1)C(=O)NCCc1ccccc1`, the EC50 was > 28 µM (inactive). For `Cc1ccc(CCNS(=O)(=O)c2ccc3c(c2)OCCN3C)cc1`, the EC50 is > 28 µM (inactive).

As for `COc1ccc2o/c(=N\NC(=O)c3ccccc3Nc3ccccc3)c(C(N)=O)cc2c1`, the EC50 is > 28 µM (inactive). Take `COc1ccc(C[C@H](N)C(=O)N[C@@H]2[C@@H](CO)OC(n3cnc4c(N(C)C)ncnc43)[C@@H]2O)cc1` (stereo partly specified): the EC50 was > 28 µM (inactive).

Take `CCc1ccccc1N(CC(=O)Nc1ccccc1Cl)S(C)(=O)=O`: the EC50 was 0.00153 µM. Turning to `CC[n+]1c(/C=C2\Sc3ccc(C)cc3N2CCO)ccc2ccccc21`, the EC50 entry was “inactive”. For `Cc1ccc(C(=O)NN=C2CCC(C)CC2)cc1` (stereo unspecified) the value was > 28 µM (inactive); for `Cc1ccc(NC(=O)CCNc2c(N3CCCC3)c(=O)c2=O)cc1Cl`, > 28 µM (inactive). Take `Cc1c(C(=O)Nc2cc(Sc3ccc(F)cc3)cc([N+](=O)[O-])c2)sc2ncn(Cc3ccccc3F)c(=O)c12`: the EC50 was > 20.2 µM (inactive). In the case of `COc1cccc(-c2ccc(SCC(=O)Nc3ccc4c(c3)OCCO4)nn2)c1`, the EC50 was > 28.7 µM (inactive). Turning to `OC1CCN(Cc2ccc3c(c2)CN(CC2CC=CCC2)CCO3)CC1` (stereo unspecified), the EC50 was > 28 µM (inactive).

For `Cc1nc2ccccc2n1CC(=O)N1CCc2c(nc(N3CCCC3)[nH]c2=O)C1`, the EC50 is > 28 µM (inactive). As to `Cn1c(=O)[nH]c(=O)c2c1nc(N1CCN(c3cccc(Cl)c3)CC1)n2Cc1ccccc1`, the EC50 was > 22.4 µM (inactive). On to `C[C@H](O)[C@H]1NC(=O)[C@@H]2C[C@H](NCc3cccc(F)c3)CN2C1=O`, for which the EC50 is > 28 µM (inactive).

In the case of `COc1ccc(-c2nnc(/C=C/c3cccs3)o2)cc1`, the EC50 was > 27.6 µM (inactive). For the compound `CCOC(=O)N1CCc2nc(NC(=O)c3ccnn3CC)sc2C1`, the EC50 is > 28 µM (inactive).

Regarding `O=C1[C@H]2[C@H]3[C@H](O)[C@H](O)C/C(=N\OCc4ccccc4)[C@H]3CC[C@H]2C(=O)N1C1CCCCC1`, the EC50 result was “inactive”. Then `CC(C)=CCN1CCN(Cc2sccc2C)CC1CCO` (stereo unspecified), with > 28 µM (inactive); and `CCC(Sc1nc(NC2CCCCC2)c2ccccc2n1)C(=O)Nc1ccc2c(c1)OCO2` (stereo unspecified), with > 20.6 µM (inactive). Then `O=C(O)c1ccc(COc2ccc3c(c2)CCC3)o1`, with > 28 µM (inactive); and `O=C(COC(=O)CCS(=O)(=O)c1ccccc1Cl)NC(=O)NCc1ccco1`, with > 28.7 µM (inactive). Then `CCCNC(=O)c1ccc2nc(-c3csc4ccccc34)sc2c1`, with > 25.7 µM (inactive); and `CC(=O)Oc1ccccc1C(=O)Nc1ncc([N+](=O)[O-])s1`, with > 28 µM (inactive); and `C/C(=N\NC(=O)Cn1nnc(-c2ccccc2)n1)c1nonc1C`, with > 28 µM (inactive). On to `CCN1CCc2c(sc(NC(=O)c3ccc(S(=O)(=O)N4CCCC(C)C4)cc3)c2C(=O)OC)C1` (stereo unspecified), for which the EC50 was > 27.6 µM (inactive). On to `C1=Nc2ccccc2SC(c2cccnc2)=C1`, for which the EC50 is > 28.2 µM (inactive). Then `COc1ccc(OCc2cc(C(=O)N(C)Cc3ccncn3)no2)c(Cl)c1`, with > 28 µM (inactive). Take `COc1ccc(-c2ccc(C(N)=O)s2)cn1`: the EC50 was > 28.1 µM (inactive). For `O=C(c1cccs1)N1CCN=C1SCc1cccc([N+](=O)[O-])c1`, the EC50 is > 28 µM (inactive). Turning to `Cc1ccc(C(=O)CSc2[nH]c(=O)ncc2C)cc1`, the EC50 was > 28.6 µM (inactive). Then `N#Cc1cccc(C(=O)NC2CCCC2)c1`, with > 31.4 µM (inactive); and `COc1cc(N)c(Cl)cc1C(=O)OCCOc1ccc(Br)cc1`, with > 30.8 µM (inactive). For `O=[N+]([O-])c1ccc(NS(=O)(=O)Cc2ccccc2)c([N+](=O)[O-])c1` the value was > 28 µM (inactive); for `CCOC(=O)c1c(C)c(C(=O)NCCC(C)C)c(C)n1C`, > 28 µM (inactive).
